Data: patent US20050080090A1, “Naphthalene derivatives” (priority 1993, published 2005)
Structures can show the parent of a compound that is named as a salt.

Row | SMILES | melting point
1 | CN1CCN(c2cccc3ccc(OC(=O)c4ccccc4)cc23)CC1 [Example 52, 7-Benzoyloxy-1-(4-methyl-1-piperazinyl)-naphthalene] | 82 to 82.5 °C
2 | CCCN1CCN(c2cccc3ccc(NC(=O)c4ccc(Cl)cc4)cc23)CC1 [Example 66, 7-(4-Chlorobenzamido)-1-(4-propyl-1-piperazinyl)-naphthalene] | 130 to 132 °C
3 | CN1CCN(c2cccc3ccc(C(O)(c4ccccc4)c4ccccc4)cc23)CC1 [Example 45, 7-(Diphenylhydroxymethyl)-1-(4-methyl-1-piperazinyl)-naphthalene] | 217.5 to 218.5 °C
4 | CN1CCC(c2cccc3ccc(N)cc23)CC1 | 169.5 to 171 °C
5 | O=C(Nc1ccc2cccc(C[C@H]3CCCN3)c2c1)c1ccc(Cl)cc1 (as salt: HCl) [Example 71, 7-(4-Chlorobenzamido)-1-(pyrrolidin-2-(R)-ylmethyl)-naphthalene] | 230 to 231.5 °C
6 | CN1CCN(c2cccc3ccc(OCc4ccc(C(F)(F)F)cc4)cc23)CC1 (as salt: hydrochloride) [Example 51, 7-(4-Trifluoromethylbenzyloxy)-1-(4-methyl-1-piperazinyl)-naphthalene] | 205 to 206 °C
7 | CN1CCCC(c2cccc3ccc(NC(=O)c4ccccc4)cc23)C1 (stereo not drawn) (as salt: HCl) [Example 64, 7-Benzamido-1-(1-methyl-3-piperidinyl)-naphthalene] | 140 to 170 °C
8 | CN1CCN(c2cccc3ccc(OS(=O)(=O)C(F)(F)F)cc23)CC1 [Example 55, 7-Trifluoromethylsulfonyloxy-1-(4-methyl-1-piperazinyl)-naphthalene] | 70 to 71 °C
9 | CN1CCN(c2cccc3ccc(-n4cnc5ccccc54)cc23)CC1 [Example 37, 7-(Benzimidazol-1-yl)-1-(4-methyl-1-piperazinyl)-naphthalene] | 148 to 150 °C
10 | COCCN1CCN(c2cccc3ccc(NC(=O)c4ccc(Cl)cc4)cc23)CC1 (as salt: hydrochloride) [Example 65, 7-(4-Chlorobenzamido)-1-(4-methoxyethyl-1-piperazinyl)-naphthalene] | 134 to 148 °C
11 | CNS(=O)(=O)c1cccc(-c2ccc3cccc(N4CCN(C)CC4)c3c2)c1 [Example 41, 7-(3-Methylaminosulfonylphenyl)-1-(4-methyl-1-piperazinyl)naphthalene] | 147.5 to 148 °C
12 | CN1CCN(c2cccc3ccc(C(=O)c4ccccc4)cc23)CC1 [Example 43, 7-Benzoyl-1-(4-methyl-1-piperazinyl)naphthalene] | 124 to 124.5 °C
13 | CN1CCN(c2cccc3ccc(NC(=O)C(F)(F)F)cc23)CC1 | 159 to 160 °C
14 | Nc1ccc2cccc(N3CCNCC3)c2c1 | 184 to 186 °C
15 | CN1CCN(c2cccc3ccc(OCc4cccc(Cl)c4)cc23)CC1 [Example 54, 7-(3-Chlorobenzyloxy)-1-(4-methyl-1-piperazinyl)-naphthalene] | 67.5 to 68 °C
16 | CN1CCC(c2cccc3ccc(NC(=O)c4ccccc4)cc23)C1 (stereo not drawn) [Example 69, 7-Benzamido-1-(1-methyl-3-pyrrolidinyl)-naphthalene] | 137 to 145 °C

Row | SMILES | melting point
17 | CN1CCN(c2cccc3ccc(OC(=O)c4ccc(Cl)cc4)cc23)CC1 [Example 53, 7-(4-Chlorobenzoyloxy)-1-(4-methyl-1-piperazinyl)-naphthalene] | 110 to 111 °C
18 | CN1CCN(c2cccc3ccc(C(=O)NCc4ccc(Cl)cc4)cc23)CC1 [Example 80, 8-(4-Methylpiperazin-1-yl)naphthalene-2-carboxylic Acid 4-chlorobenzylamide] | 72 to 74 °C
19 | CN1CCCC(c2cccc3ccc(N)cc23)C1 (stereo not drawn) | 117 to 120 °C
20 | CN1CCN(c2cccc3ccc(C(O)c4ccccc4)cc23)CC1 (stereo not drawn) [Example 44, 7-(α-Hydroxybenzyl)-1-(4-methyl-1-piperazinyl)-naphthalene] | 162.5 to 163 °C
21 | CN1CCN(c2cccc3ccc(N)cc23)CC1 | 157 to 159 °C
22 | CN1CCN(c2cccc3ccc(Nc4ncccc4NC(=O)c4ccccc4)cc23)CC1 [Example 30, 7-(3-Benzamido-2-pyridylamino)-1-(4-methyl-1-piperazinyl)-naphthalene] | 205 to 207 °C
23 | CCCCCC(=O)Nc1ccc2cccc(N3CCN(C)CC3)c2c1 [Example 17, 7-Hexanamido-1-(4-methyl-1-piperazinyl)-naphthalene] | 144 to 146 °C
24 | CN1CCN(c2cccc3ccc(OCc4ccc(Cl)cc4)cc23)CC1 [Example 40, 7-(4-Chlorobenzyloxy)-1-(4-methyl-1-piperazinyl)-naphthalene] | 111.5 to 112 °C
25 | c1cc(N2CCNCC2)c2cc(-n3cnc4ncccc43)ccc2c1 (as salt: hydrochloride) | > 250 °C
26 | Cl.O=CNc1ccc2cccc(C[C@H]3CCCN3)c2c1 | 223.5 to 224 °C
27 | CN1CCN(c2cccc3ccc(OCc4ccc(Cl)c(Cl)c4)cc23)CC1 [Example 50, 7-(3,4-Dichlorobenzyloxy)-1-(4-methyl-1-piperazinyl)-naphthalene] | 113 to 114 °C
28 | CCN1CCN(c2cccc3ccc(NC(=O)c4ccc(Cl)cc4)cc23)CC1 [Example 67, 7-(4-Chlorobenzamido)-1-(4-ethyl-1-piperazinyl)-naphthalene] | 173 to 174.5 °C
29 | O=C(Nc1ccc2cccc(N3CCNCC3)c2c1)c1ccccc1 | 141.5 to 144 °C
30 | CN1CCCC(c2cccc3ccc(-n4cnc5ncccc54)cc23)C1 (stereo not drawn) (as salt: HCl) [Example 63, 7-(Imidazolo[4,5-b]pyridin-1-yl)-1-(1-methyl-3-piperidinyl)-naphthalene] | > 250 °C
31 | c1cc(N2CCNCC2)c2cc(-n3nnc4ncccc43)ccc2c1 (as salt: hydrochloride) | > 250 °C

Now from value to compound:

Row | melting point | SMILES
32 | 213 to 214 °C | CN1CCN(c2cccc3ccc(NC(=O)Nc4ccccc4)cc23)CC1 [Example 19, 7-(Phenylaminocarbonylamino)-1-(4-methyl-1-piperazinyl)-naphthalene]
33 | 173 to 175 °C | CN1CCN(c2cccc3ccc(NC(=O)c4ccccc4)cc23)CC1 [Example 1, 7-Benzamido-1-(4-methyl-1-piperazinyl)-naphthalene]
34 | 121 to 125 °C | CN1CCN(c2cccc3ccc(Nc4ccc([N+](=O)[O-])cn4)cc23)CC1 [Example 27, 7-(5-Nitro-2-pyridylamino)-1-(4-methyl-1-piperazinyl)-naphthalene]
35 | 127.5 to 129 °C | CN1CCN(c2cccc3ccc(Nc4ncccc4[N+](=O)[O-])cc23)CC1 [Example 25, 7-(3-Nitro-2-pyridinylamino)-1-(4-methyl-1-piperazinyl)-naphthalene]
36 | 100 to 101 °C | CN1CCN(c2cccc3ccc(-c4cccc(NS(C)(=O)=O)c4)cc23)CC1 [Example 42, 7-(3-Methylsulfonylaminophenyl)-1-(4-methyl-1-piperazinyl)-naphthalene]
37 | 156 to 160 °C | CN1CCN(c2cccc3ccc(NC(=O)c4ccc(O)cc4)cc23)CC1 [Example 10, 7-(4-Hydroxybenzamido)-1-(4-methyl-1-piperazinyl)-naphthalene]
38 | 147 to 148 °C | CN1CCN(c2cccc3ccc(NC(=O)c4cccc(Cl)c4)cc23)CC1 [Example 6, 7-(3-Chlorobenzamido)-1-(4-methyl-1-piperazinyl)-naphthalene]
39 | 254 to 256 °C | CN1CCN(c2cccc3ccc(NC(=O)c4cc([N+](=O)[O-])cc([N+](=O)[O-])c4)cc23)CC1
40 | 115 to 117 °C | CN1CCN(c2cccc3ccc(NCc4ccccc4)cc23)CC1 [Example 14, 7-(Benzylamino)-1-(4-methyl-1-piperazinyl)-naphthalene]
41 | 157 to 160 °C | CN1CCN(c2cccc3ccc(Nc4nc(Cc5ccccc5)cs4)cc23)CC1 [Example 24, 4-Benzyl-2-[-1-(4-methyl-1-piperazinyl)-7-naphthylamino]-thiazole]
42 | 87 to 94 °C | CN1CCN(c2cccc3ccc(Nc4ccccc4[N+](=O)[O-])cc23)CC1 [Example 28, 7-(2-Nitrophenylamino)-1-(4-methyl-1-piperazinyl)-naphthalene]
43 | 198 to 200 °C | CN1CCN(c2cccc3ccc(Nc4ncccc4N)cc23)CC1 (hydrate or solvate) [Example 29, 7-(3-Amino-2-pyridylamino)-1-(4-methyl-1-piperazinyl)-naphthalene]
44 | 107 to 112 °C | CN1CCN(c2cccc3ccc(-n4cnc5ncccc54)cc23)CC1 [Example 35, 7-(Imidazolo[4,5-b]pyridin-1-yl)-1-(4-methyl-1-piperazinyl)-naphthalene]
45 | 143 to 144 °C | CN1CCN(c2cccc3ccc(NC(=O)OCc4ccccc4)cc23)CC1 [Example 20, 7-(Benzyloxycarbonylamino)-1-(4-methyl-1-piperazinyl)-naphthalene]
46 | 182 to 184 °C | CN1CCN(c2cccc3ccc(NC(=O)c4cccc([N+](=O)[O-])c4)cc23)CC1 [Example 4, 7-(3-Nitrobenzamido)-1-(4-methyl-1-piperazinyl)-naphthalene]
47 | 220 to 222 °C | CN1CCN(c2cccc3ccc(NC(=O)c4cccc(C#N)c4)cc23)CC1 [Example 9, 7-(3-Cyanobenzamido)-1-(4-methyl-1-piperazinyl)-naphthalene]
48 | 110 to 114 °C (dec.) | CC(=O)Nc1cccnc1Nc1ccc2cccc(N3CCN(C)CC3)c2c1 [Example 31, 7-(3-Acetamido-2-pyridylamino)-1-(4-methyl-1-piperazinyl)-naphthalene]
49 | 153 to 154 °C | CN1CCN(c2cccc3ccc(Nc4ccc([N+](=O)[O-])cc4[N+](=O)[O-])cc23)CC1
50 | 174 to 175 °C | CN1CCN(c2cccc3ccc(NC(=O)c4ccc(Cl)cc4)cc23)CC1 [Example 8, 7-(4-Chlorobenzamido)-1-(4-methyl-1-piperazinyl)-naphthalene]
51 | 236 to 238 °C | COc1cccc(-c2ccc3cccc(N4CCN(C)CC4)c3c2)c1 (as salt: hydrochloride) [Example 81, 7-(3-Methoxyphenyl)-1-(4-methylpiperazin-1-yl)naphthalene]
